Assay results: PubChem BioAssay (NCI)
“And” between values parts separate entries of the source, which are not always exact repeats. Equal entries are not always repeated.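 Five concentrations, 48 hours, 96-well plates. GI50 is the concentration that inhibits growth by half. The concentration for full growth arrest is given as TGI.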

Key:
Test in all cases: DTP human tumour cell line panel, 48 h
[1] = system: ACHN renal
[2] = system: NCI-H460 lung
[3] = system: KM12 colon
[4] = system: UACC-62 melanoma
[5] = system: OVCAR-3 ovarian
[6] = system: CAKI-1 renal
[7] = system: HCT-15 colon
[8] = system: MALME-3M melanoma
[9] = system: RPMI-8226 leukemia
[10] = system: SW-620 colon

Compound	GI50 [1]	TGI [1]	GI50 [2]	TGI [2]	GI50 [3]	TGI [3]	GI50 [4]	TGI [4]	GI50 [5]	TGI [5]	GI50 [6]	TGI [6]	GI50 [7]	TGI [7]	GI50 [8]	TGI [8]	GI50 [9]	TGI [9]	GI50 [10]	TGI [10]
CC(C)=NO.CC(C)=NO.CC(C)=NO.CC(C)=NO.[Ti]	> 100 µM	> 100 µM	> 100 µM	> 100 µM	> 100 µM	> 100 µM	> 100 µM	> 100 µM	> 100 µM	> 100 µM	> 100 µM	> 100 µM	> 100 µM	> 100 µM	> 100 µM	> 100 µM	> 100 µM	> 100 µM	> 100 µM	> 100 µM
O=C1OC(c2ccccc2)=N/C1=C\c1ccc(N(CCCl)CCCl)cc1		> 100 µM		> 100 µM		> 100 µM		> 100 µM		> 100 µM		> 100 µM		> 100 µM		> 100 µM		> 100 µM		> 100 µM
O=C(COC(=O)[C@H](C[Se][Se]C[C@H](NC(=O)c1ccc(Br)cc1F)C(=O)OCC(=O)c1ccc(F)cc1)NC(=O)c1ccc(Br)cc1F)c1ccc(F)cc1	1.65 µM	4.18 µM	0.345 µM	1.27 µM	0.301 µM	0.793 µM	1.69 µM	4.83 µM	0.479 µM	1.27 µM	0.716 µM	2.66 µM	1.34 µM	4.03 µM	0.639 µM	1.64 µM	0.132 µM	0.593 µM	0.878 µM	2.43 µM
CCC(=C(c1ccc(OCCN(CC)CC)cc1)c1ccc(OCCN(CC)CC)cc1)c1ccc(Cl)cc1	0.596 µM	1.08 µM	0.619 µM	1.17 µM	0.611 µM	1.18 µM	0.592 µM	1.13 µM	0.577 µM	1.14 µM	0.515 µM	0.984 µM	0.541 µM	1.08 µM	0.567 µM	1.07 µM	0.714 µM	1.64 µM	0.572 µM	1.12 µM
c1csc(-c2[nH]nc3c2CCc2ccccc2-3)c1	18.1 µM	85 µM	9.12 µM	34.3 µM	0.406 µM	14.9 µM	13.6 µM	27.8 µM	3.35 µM	19.7 µM	19.6 µM	58.1 µM	0.289 µM	18.6 µM	19.8 µM	50.4 µM	15.6 µM	55.4 µM	20.3 µM	46.1 µM
C/C(=N\NC(=O)c1ccncc1)c1ccccc1O	1.64 µM	> 100 µM	0.683 µM	> 100 µM	2.95 µM	> 100 µM	3.04 µM	18.9 µM	3.35 µM	> 100 µM	0.805 µM	21.4 µM	0.828 µM	> 100 µM	5.39 µM	97.3 µM	4.68 µM	> 100 µM	5.27 µM	> 100 µM
CN(C)C(=O)c1cc2cnc(Nc3ccc(N4CCNCC4)cn3)nc2n1C1CCCC1	7.89 µM	> 100 µM	11.3 µM	43.8 µM	2.85 µM	32.9 µM	15.4 µM	34 µM	21 µM	69.2 µM	20 µM	> 100 µM	16.6 µM	> 100 µM	5.4 µM	22.3 µM	2.62 µM	30 µM	1.21 µM	66 µM
CN1C/C(=C\c2ccco2)c2nc(N)nc(-c3ccco3)c2C1		> 100 µM		> 100 µM		> 100 µM		> 100 µM		> 100 µM		> 100 µM		> 100 µM		> 100 µM		> 100 µM		> 100 µM
O=C(NCc1cccnc1)c1ccc([N+](=O)[O-])o1	3.56 µM	> 15.5 µM	1.62 µM	3.73 µM	1.32 µM	5.32 µM	1.06 µM	4.42 µM	1.61 µM	6.89 µM	2.39 µM	13.3 µM	0.647 µM	1.76 µM	1.56 µM	7.88 µM	4.72 µM	> 32.5 µM	1.47 µM	5.58 µM
COc1cccc2c(Nc3ccc(C(=O)NCCN4CCNCC4)cc3)cc(-c3ccccc3)nc12	18.8 µM	40.8 µM	35.1 µM	> 100 µM	30.8 µM	> 100 µM	65.6 µM	> 100 µM	> 100 µM	> 100 µM	> 100 µM	> 100 µM	57.8 µM	> 100 µM	21.6 µM	47.6 µM	18 µM	44.3 µM	29 µM	> 100 µM
Cc1c(N)nc(C2CC(=O)N2CC(N)C(N)=O)nc1C(=O)NC(C(=O)NC(C)C(O)C(C)C(=O)NC(C(=O)NCCc1nc(-c2nc(C(=O)NCCNCC(C)O)cs2)cs1)C(C)O)C(OC1OC(CO)C(O)C(O)C1OC1OC(CO)C(O)C(OC(N)=O)C1O)c1cnc[nH]1 (centres undefined)	0.135 µM	3.85 µM and 1.2 µM	0.208 µM	50 µM and 13.6 µM	> 50 µM	> 100 µM	0.756 µM	6.43 µM and 7.31 µM	1.63 µM	20.6 µM and > 55 µM	0.0234 µM		42.7 µM	50 µM and > 75.9 µM	1.16 µM	22.5 µM and 11.9 µM	> 50 µM	> 50 µM	> 50 µM	> 50 µM
Cc1cccc(Cc2cnc(NC(=O)CCCOc3ccc(Cl)cc3)s2)c1	3.47 µM	> 100 µM	3.32 µM	> 100 µM	4.53 µM	> 100 µM	9.45 µM	> 100 µM	3.4 µM	> 100 µM	3.68 µM	> 100 µM	3.56 µM	> 100 µM	5.38 µM	> 100 µM	4.23 µM	> 100 µM	3.39 µM	> 100 µM
Nc1ccc2ncc(Nc3ccc(Cl)c(Cl)c3)nc2c1		86.3 µM		> 100 µM		> 100 µM		50.9 µM		40.1 µM		67.3 µM		> 100 µM		55.8 µM		> 100 µM		> 100 µM
